We go through twelve compounds from ChEMBL document CHEMBL1201862, “PubChem BioAssay data set” (2004).

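All cell lines were grown in 96-well plates and treated with compound for 48 hours. Here, GI50 denotes the concentration required for 50% inhibition of growth.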 Calls of active or inactive are those of the source. Rule as the data show it: active = GI50 up to about 1.1 µM and inactive = higher. A value given as a limit tells only on which side of the number the result lay.

What all share (test): NCI anticancer screen, dose series, 48 h
Assay [1] has as its system HCT-15.
The test system of assay [2] is HOP-92.
The subject of assay [3] is NCI-H522.
In assay [4] the test system is CAKI-1.
Assay [5] deals with NCI-H23.
For assay [6], the system named is UACC-62.
Assay [7] has as its system ACHN.
Assay [8] concerns Malme-3M.
Assay [9] deals with U-251.
Assay [10] relates to SN12C.
Assay [11] has as its system COLO 205.
Assay [12] deals with HL-60.
For assay [13], the system named is SNB-19.
Assay [14] relates to SF-268.
Assay [15] relates to SNB-75.
The subject of assay [16] is OVCAR-8.
For assay [17], the system named is SK-OV-3.
Assay [18] concerns EKVX.

For `CN(C)CC1(C)CC/C(=C\c2ccc(Cl)cc2)C1=O` (stereo not drawn), the GI50 in assay [1] was 34.4 µM; in assay [2], 59 µM (inactive); in [3], 17.7 µM (inactive); in assay [4], 22.7 µM (inactive); in [5], 57.4 µM (inactive); in assay [6] it was 28.5 µM (inactive). The GI50 is 44.9 µM (inactive) in [7]; > 100 µM (inactive) in [8]; 40.1 µM (inactive) in [9]; 51.3 µM (inactive) in assay [10]; 17.4 µM (inactive) in assay [11]; 19.7 µM (inactive) in assay [12]. The GI50 in assay [13] is 20.3 µM (inactive); in [14], 36.9 µM (inactive); in assay [15] it was 45 µM (inactive); in assay [16] it was 40.1 µM (inactive).

`O=C1OC(=O)C2C3C=CC(C12)C1C2C=CC2C31` (stereo not drawn): the GI50 in assay [2], in [3], in assay [17], in assay [4], in [5] and in assay [7] was > 100 µM (inactive) each time. For the same compound, the GI50 in [8], in [9], in assay [10], in assay [11], in assay [12] and in [13] was > 100 µM (inactive) each time. Besides, the GI50 in assay [14], in [18] and in [16] was > 100 µM (inactive) each time.

In the case of `CC(=O)NC1=C(NC(C)(C)C)C(=O)c2ccccc2C1=O`, the GI50 was 17.3 µM in [1]; 19.1 µM (inactive) in [2]; 54 µM (inactive) in [17]; 16.1 µM (inactive) in [4]; 18.7 µM (inactive) in assay [5]; 13.7 µM (inactive) in [6]. In addition, the GI50 in [7] is 86.1 µM (inactive); in assay [8] it was 19.5 µM (inactive); in [9], 37 µM (inactive); in assay [10] it was 18.2 µM (inactive); in assay [11] it was 83.4 µM (inactive); in assay [12], 2.23 µM (inactive). Also, the GI50 in assay [13] was 43.2 µM (inactive); in assay [14], 26.9 µM (inactive); in assay [18], 28.2 µM (inactive); in assay [15], 13.6 µM (inactive); in [16], 20.3 µM (inactive).

As to `C=CCCC(OCOCCOC)c1cc(C)c(O[Si](C)(C)C(C)(C)C)c(C)c1` (stereo not drawn), the GI50 in assay [1] is 13.2 µM; in assay [3], 11.8 µM (inactive); in assay [17], 25.4 µM (inactive); in assay [5] it was 14.5 µM (inactive); in assay [6], 10.7 µM (inactive); in [7], 13.2 µM (inactive). Besides, the GI50 is 19.6 µM (inactive) in [8]; 14.3 µM (inactive) in assay [9]; 15.6 µM (inactive) in [10]; 16.7 µM (inactive) in [11]; 3.28 µM (inactive) in assay [12]; 6.32 µM (inactive) in assay [13]. Further, the GI50 in assay [14] is 15.2 µM (inactive); in assay [18] it was 32.2 µM (inactive); in assay [15] it was 15.6 µM (inactive); in assay [16] it was 19.3 µM (inactive).

In the case of `CCO/N=[N+](\[O-])N(CC)CC`, the GI50 in [1] is > 100 µM; in assay [2], > 100 µM (inactive); in assay [3] it was > 100 µM (inactive); in assay [17], > 100 µM (inactive); in assay [4] it was > 100 µM (inactive); in assay [5] it was > 100 µM (inactive). The GI50 in assay [6], in assay [7], in assay [10], in [12], in assay [13] and in assay [14] was > 100 µM (inactive) throughout. In addition, the GI50 in assay [18] and in assay [16] was > 100 µM (inactive) in each case.

On to `CN(C)Cc1cc(/C(=C(\C#N)c2ccccc2)c2ccc(O)cc2)ccc1O`, for which the GI50 in assay [1] is 25.4 µM; in assay [2] it was 14.4 µM (inactive); in assay [3] it was 12.9 µM (inactive); in [17], 27 µM (inactive); in [4], 20.9 µM (inactive); in [5], 19.1 µM (inactive). Further, the GI50 in [6] is 17.8 µM (inactive); in assay [7], 13.9 µM (inactive); in assay [8], 16.1 µM (inactive); in assay [9], 17.9 µM (inactive); in assay [10], 18.3 µM (inactive); in [11] it was 14.5 µM (inactive). Moreover, the GI50 in assay [13] was 28.8 µM (inactive); in assay [14], 20 µM (inactive); in [18], 23.9 µM (inactive); in assay [15] it was 17.5 µM (inactive); in [16] it was 19.1 µM (inactive).

For the compound `COc1cc2ccc1-c1cc(ccc1O)CC1c3cc4c(cc3CCN1C)Oc1c(OC)cc3c(c1O4)C(C2)N(C)CC3` (stereo not drawn), the GI50 in [1] was 1.68 µM; in assay [2], 13.4 µM (inactive); in [3] it was 1.75 µM (inactive); in assay [4] it was 2.52 µM (inactive); in assay [5], 1.99 µM (inactive); in assay [6] it was 2 µM (inactive). For the same compound, the GI50 in assay [7] was 2 µM (inactive); in assay [8], 1.89 µM (inactive); in assay [9], 1.69 µM (inactive); in assay [10], 2.08 µM (inactive); in [12], 2.16 µM (inactive); in assay [13], 1.98 µM (inactive). Besides, the GI50 was 1.81 µM (inactive) in assay [14], 2.1 µM (inactive) in assay [18], 1.8 µM (inactive) in assay [15] and 1.87 µM (inactive) in assay [16].

With `COc1ccc(/C(Cl)=C(\C=O)c2ccc(Cl)cc2)cc1OC`, the GI50 in assay [1] was 3.29 µM; in assay [3] it was 2.47 µM (inactive); in assay [17], 34.8 µM (inactive); in assay [4], 4.59 µM (inactive); in assay [5], 3.01 µM (inactive); in assay [6], 5.97 µM (inactive). The GI50 in [7] was 3.18 µM (inactive); in [8], 34.9 µM (inactive); in assay [9], 3.85 µM (inactive); in assay [10], 3.72 µM (inactive); in assay [11], 3.77 µM (inactive); in [12], 2.55 µM (inactive). Besides, the GI50 in [13] is 6.73 µM (inactive); in [14], 12.3 µM (inactive); in [18], 4.47 µM (inactive); in assay [15] it was 3.85 µM (inactive); in assay [16], 4.03 µM (inactive).

Consider `COC(=O)/C(=N/NC(C)(C)C)C(C(=O)OC)C(=O)C(=O)Nc1nc2ccc([N+](=O)[O-])cc2s1` (stereo not drawn), for which the GI50 is > 100 µM in [1]; > 100 µM (inactive) in assay [3]; > 100 µM (inactive) in assay [17]; > 100 µM (inactive) in [4]; > 100 µM (inactive) in assay [5]; > 100 µM (inactive) in [6]. For the same compound, the GI50 in [7], in assay [8], in assay [9], in [10], in [11] and in assay [12] was > 100 µM (inactive) in each case. In addition, the GI50 in [13], in assay [14], in [18] and in assay [16] was > 100 µM (inactive) in each case.

For the compound `CCCN(CCCCC(NC(C)=O)C(=O)NCc1ccccc1)C(=O)NC` (stereo not drawn), the GI50 in assay [1] was > 100 µM; in assay [2], > 100 µM (inactive); in [3] it was > 100 µM (inactive); in assay [17], > 100 µM (inactive); in assay [4], > 100 µM (inactive); in [5] it was > 100 µM (inactive). For the same compound, the GI50 in assay [6], in assay [7], in assay [8], in [9], in assay [10] and in assay [11] was > 100 µM (inactive) in each case. For the same compound, the GI50 in assay [13] is > 100 µM (inactive); in assay [14], > 100 µM (inactive); in assay [18] it was > 100 µM (inactive); in assay [15], 95.7 µM (inactive); in [16], > 100 µM (inactive).

In the case of `C1=CC=C2NCCSCC/N=C3/C=CC=CC=C3NCCSCC/N=C\2C=C1`, the GI50 in [1] is > 100 µM; in assay [3], > 100 µM (inactive); in [17], > 100 µM (inactive); in assay [4], > 100 µM (inactive); in [5], > 100 µM (inactive); in assay [6], > 100 µM (inactive). Besides, the GI50 in [7], in assay [8], in [9], in assay [10], in assay [11] and in assay [12] was > 100 µM (inactive) throughout. Moreover, the GI50 in assay [13], in assay [14], in assay [18], in assay [15] and in assay [16] was > 100 µM (inactive) in each case.

For `COc1cc(OC)c([C@@H]2OC(=O)C3C2C(=O)O[C@H]3c2cc(OC)c(OC)cc2OC)cc1OC` (stereo partly drawn), the GI50 in assay [1] is > 100 µM; in assay [2], > 10 µM (inactive); in assay [17] it was > 100 µM (inactive); in [4], > 100 µM (inactive); in assay [5] it was > 100 µM (inactive); in [6] it was > 100 µM (inactive). Further, the GI50 in assay [7] was > 100 µM (inactive); in assay [9] it was > 100 µM (inactive); in [10], > 100 µM (inactive); in assay [11], > 100 µM (inactive); in assay [12], 88.9 µM (inactive); in assay [13], > 100 µM (inactive). Also, the GI50 in assay [18], in assay [15] and in assay [16] was > 100 µM (inactive) throughout.
